Results published in publication PMC4234447 (Journal of Medicinal Chemistry, 2014).

Experiments:
797 cell line = assay: Cell viability assay; format: cell-based; settings: read-out: 797 cellular EC50 (cellular potency)
BRD4 = BRD4 (Homo sapiens, UniProt O60885); assay: AlphaScreen BRD binding assay; settings: calculated from BRD4 potency

Question: How did the EC50 (797 cell line) turn out when Cc1sc2c(c1C)C(c1ccc(Cl)cc1)=N[C@@H](CC(=O)OC(C)(C)C)c1nnc(C)n1-2 [Compound 1] was run?
Answer: Its EC50 is 71.7 nM.

Question: For Cc1noc(C)c1-c1ccc(C=O)cc1 [Compound 8], which “ligand efficiency (as defined by Hopkins et al.)” value (BRD4) is on record?
Answer: Its value is 0.54.
